Results on two molecules are retold here after patent publication US20190262355A1, “COMBINATION OF A BRD4 INHIBITOR AND AN ANTIFOLATE FOR THE THERAPY OF CANCER” (CeMM-Forschungszentrum für Molekulare Medizin GmbH, priority 2016, published 2019).

In assay [1] the target is T1, BRD4-MTHFD1 interaction (Homo sapiens, UniProt O60885+P11586).
T1 construct: MTHFD1 pull-down performed on HAP1 whole cell lysates treated with 50 μM (S)-JQ1, MTX; endogenous in cells; host or cells: HAP1
The assay is described as follows: MTHFD1 pull-down on HAP1 whole cell lysates (BRD4-MTHFD1 interaction). The class given is binding. As to conditions: HAP1 whole cell lysates treated with 50 μM (FIG. 9I). Here is the method:
For immunoprecipitation, 1 mg of protein extract was incubated overnight at 4° C. with 10 μl of Dynabeads (either A or G, Life technology) preincubated for 2 hours at 4° C. with 1 μg of BRD4 (ab128874, Abcam), MTHFD1 (A8, Santa Cruz) or GFP (G10362, Life Technology) antibodies.

Assay [2] concerns panel of six cell lines (four not sensitive to BRD4 inhibition, plus KBM7 and HAP1). The assay is described as follows: Cell viability of cancer cell lines, single agents and combination. The assay is classed as cell-based, human. As to conditions: NOMO-1 the most sensitive to MTX (FIG. 13A, 13B). The procedure:
HEK293T (human embryonic kidney) and HELA (cervix adenocarcinoma) cell lines were cultured in Dulbecco's Modified Eagles Medium (DMEM, Gibco) supplemented with 10% FBS. […] All the mentioned cell lines were incubated in 5% CO2 atmosphere at 37° C.

Assay [3] has as its system WT-KBM7 cells. The assay is described as follows: Cell cycle profile by PI staining and FACS (diploidization). The class given is cell-based, human. As to conditions: treated overnight during one week, PI incorporation and FACS (FIG. 6D). Here is the method: For cell cycle analysis, 1 million cells were fixed with 70% ethanol for 24 hours, washed with PBS/1% BSA/0.1% Tween and incubated with RNase for 30 minutes. Nuclei were stained with 5 μg/ml PI (propidium iodide, Sigma) for 10 minutes prior to FACS analysis (BD FACSCalibur Flow Cytometer).
The prerequisite for effective GT genetic screens is a haploid system where monoallelic disruptive GT integration results in gene knock-out (KO). Therefore, KBM7 cells, a chronic myeloid leukemia cell line with near haploid karyotype, were chosen for the generation of the BRD4 reporter cell lines as previously described^15. […] Propidium iodide (PI) incorporation and FACS analysis were used to assay the cell cycle profile of several REDS clones in order to select a haploid clone suitable for GT-based genetic screen. […] REDS1 was the only clonal cell line with haploid karyotype (see FIG. 6B), also confirmed by metaphase spreads (see FIG. 6C).

Assay [4] has as its system BRD4. Nature of the assay: REDS reporter cell line, RFP expression (Redness) on BRD4 inhibition. The assay is classed as cell-based, human. From the text:
Live cell imaging pictures were taken from cells seeded on clear flat bottom 96-well or 384-well plates (Corning), with the Operetta High Content Screening System (PerkinElmer), 20× objective and non-confocal mode. RFP quantification was done using the basic PerkinElmer software for nuclei detection and analysis, adapted for the nucleus diameter range of the specific cell line used (KBM7, 13 μm). Only RFP positive nuclei were detected and counted.
The prerequisite for effective GT genetic screens is a haploid system where monoallelic disruptive GT integration results in gene knock-out (KO). Therefore, KBM7 cells, a chronic myeloid leukemia cell line with near haploid karyotype, were chosen for the generation of the BRD4 reporter cell lines as previously described^15. […] Propidium iodide (PI) incorporation and FACS analysis were used to assay the cell cycle profile of several REDS clones in order to select a haploid clone suitable for GT-based genetic screen.
The suitability of the REDS1 clone for a GT-based genetic screen was then further validated.

For assay [5], the system named is A549 xenograft. Nature of the assay: A549 xenograft mouse model. The assay is classed as in vivo. Conditions: NOD SCID gamma mice; 30 mg/kg (S)-JQ1 i.p. five times per week and/or 25 mg/kg MTX i.p. twice weekly from day 19 to day 43 (FIG. 21B-D). The procedure: Mouse xenograft studies were performed as described previously^35. 2×10^6 A549 cells, diluted 1:1 in matrigel, were transplanted subcutaneously into NOD SCID gamma mice. Treatment (30 mg/kg (S)-JQ1 by intraperitoneal injection five times per week, and 25 mg/kg MTX per intraperitoneal injection twice weekly) was started when tumors were established, 19 days post transplantation. Tumor volumes were evaluated twice a week by measuring two perpendicular diameters with calipers. Tumor volume was calculated using the following equation: (width*width*length)/2. Treatment was performed according to an animal licence protocol approved by the Bundesministerium für Wissenschaft and Forschung (BMWF-66.009/0280-II/3b/2012). At day 43 mice were sacrificed and tumors excised and weighted.

Assay [6] relates to A549 cells. Nature of the assay: Cell viability of A549 cells after MTHFD1 knock-down. As to conditions: 72 hours (S)-JQ1 (FIG. 21A). The class given is cell-based. Here is the method: KBM7 (human chronic myelogenous leukemia cell lines), MV4-11 (biphenotypic B myelomonocytic leukemia), MEG-01 (human chronic myelogenous leukemia), K-562 (human chronic myelogenous leukemia) and HAP1 (KBM7-derived) cell lines were cultured in Iscove's Modified Dulbecco's Medium (IMDM, Gibco), supplemented with 10% Fetal Bovine Serum (FBS; Gibco). HEK293T (human embryonic kidney) and HELA (cervix adenocarcinoma) cell lines were cultured in Dulbecco's Modified Eagles Medium (DMEM, Gibco) supplemented with 10% FBS. MOLM-13 (human acute monocytic leukemia), NOMO-1 (human acute monocytic leukemia) and A549 (lung carcinoma) cell lines were cultured in RPMI-1640 (Roswell Park Memorial Institute, Gibco) supplemented with 10% FBS. All the mentioned cell lines were incubated in 5% CO2 atmosphere at 37° C.

Assay [7] relates to nuclear folate pool. The assay is described as follows: Folate metabolites in nuclear and cytosolic fractions of HAP1 cells (LC-MS/MS). The class given is cell-based, human. Conditions: 6 hours, MTX and (S)-JQ1 1 μM, dBET6 0.5 μM (FIG. 19B).
Protocol: In order to quantify folates in the nuclear and cytosolic fractions, 20 millions of HAP1 cells per condition were washed twice with cold PBS, and collected into 50 ml falcon tube by centrifugation for 5 minutes at 280 g and 4° C. Cell lysis was performed on ice in the dark by incubating cell pellets with 1:5 hypotonic lysis buffer for 10 minutes. Nuclei were collected by centrifugation for 5 minutes at 420 g and 4° C. Supernatants (cytosolic fractions) were also collected. Both fractions were immediately snap frozen. For nucleus samples, 10 μL of ISTD mixture was added to nucleus pellet in 1.5 mL Eppendorf tube followed by addition of 145 μL of ice-cold extraction solvent (10 mg/mL ascorbic acid solution in 80% methanol, 20% water, v/v). The samples were vortexed for 10 seconds, afterwards incubated on ice for 3 min and vortexed again for 10 seconds. After centrifugation (14000 rpm, 10 min, 4° C.), the supernatant was collected into HPLC vials. […] An Acquity UHPLC system (Waters) coupled with Xevo TQ-MS (Waters) triple quadrupole mass spectrometer was used for quantitative analysis of metabolites. […] Quantification of all metabolites was performed using MassLynx V4.1 software from Waters. The seven-point linear calibration curves with internal standardization and 1/× weighing was constructed for the quantification.
The subject of assay [8] is MTHFD1 nuclear localization. Nature of the assay: Nuclear vs cytosol fractionation Western blot in HAP1 cells. As to conditions: MTX 1 μM, 24 hours (FIG. 2D). The class given is cell-based, human. Here is the method:
For Western Blot, proteins were separated on polyacrylamide gels with SDS running buffer (50 mM Tris, 380 mM Glycine, 7 mM SDS) and transferred to nitrocellulose blotting membranes. All membranes were blocked with blocking buffer (5% (m/v) milk powder (BioRad) in TBST (Tris-Buffered Saline with Tween: 50 mM Tris (tris (hydroxymethyl)aminomethane), 150 mM NaCl, 0.05% (v/v) Tween 20, adjusted to pH 7.6). Proteins were probed with antibodies against BRD4 (ab128874, 1:1000, Abcam), Actin (ab16039, 1:1000, Abcam), MTHFD1 (ab70203, Abcam; H120, Santa Cruz; A8, Santa Cruz; all used at 1:1000), GFP (G10362, 1:1000, Life Technology), RCC1 (C-20, 1:1000, Santa Cruz), β-Tubulin (T-4026, 1:1000, Sigma), SHMT1 (ab186130, 1:1000, Abcam) and H2B (ab156197, 1:1000, Abcam) and detected by HRP (horseradish peroxidase) conjugated donkey anti-rabbit IgG antibody (ab16284, 1:5000, Abcam) or donkey anti-mouse IgG antibody (Pierce) and visualized with the Pierce ECL Western Blotting substrate (Amersham), according to the provided protocol.
A general note: In western blotting, separated proteins are transferred to a membrane and probed.

Assay [9] addresses T2, chromatin-bound BRD4 (Homo sapiens, UniProt O60885).
T2 construct: Western Blot assay performed on chromatin associated protein samples extracted from HAP1 cells treated with the indicated compounds; endogenous in cells; host or cells: HAP1
Nature of the assay: Western blot of chromatin associated proteins: BRD4. As to conditions: HAP1 cells, MTX 1 μM, 2 or 24 hours (FIG. 2C). The class given is cell-based.
Protocol: Cell fractionation and chromatin enrichment was carried out as previously described^29 with some adaptations. Briefly, for 100 million cells, the chromatin enriched pellet was taken up in 250 μl benzonase digestion buffer (15 mM HEPES, 1 mM EDTA, 1 mM EGTA, 0.1% NP40, protease inhibitor cocktail (cOmplete, Roche)) after washing, and sonicated for 120 seconds on the Covaris S220 focused-ultrasonicator with the following settings: Peak Power 140; Duty-Factor 10.0; Cycles/Burst 200. After addition of 0.25 U benzonase and 2.5 μg RNase, the chromatin was incubated for 40 minutes at 4° C. on a rotary shaker. 2× SDS lysis buffer (100 mM HEPES, 4% SDS, 2 mM PMSF and protease inhibitor cocktail (cOmplete, Roche)) was added to the samples in a 1:1 ratio and incubated for 10 minutes at room temperature followed by 5 minutes denaturation at 99° C. After centrifugation at 16,000 g for 10 minutes at room temperature, the supernatant was transferred to a new tube.

T1 sequence (P11586 whole entry, other chains not shown): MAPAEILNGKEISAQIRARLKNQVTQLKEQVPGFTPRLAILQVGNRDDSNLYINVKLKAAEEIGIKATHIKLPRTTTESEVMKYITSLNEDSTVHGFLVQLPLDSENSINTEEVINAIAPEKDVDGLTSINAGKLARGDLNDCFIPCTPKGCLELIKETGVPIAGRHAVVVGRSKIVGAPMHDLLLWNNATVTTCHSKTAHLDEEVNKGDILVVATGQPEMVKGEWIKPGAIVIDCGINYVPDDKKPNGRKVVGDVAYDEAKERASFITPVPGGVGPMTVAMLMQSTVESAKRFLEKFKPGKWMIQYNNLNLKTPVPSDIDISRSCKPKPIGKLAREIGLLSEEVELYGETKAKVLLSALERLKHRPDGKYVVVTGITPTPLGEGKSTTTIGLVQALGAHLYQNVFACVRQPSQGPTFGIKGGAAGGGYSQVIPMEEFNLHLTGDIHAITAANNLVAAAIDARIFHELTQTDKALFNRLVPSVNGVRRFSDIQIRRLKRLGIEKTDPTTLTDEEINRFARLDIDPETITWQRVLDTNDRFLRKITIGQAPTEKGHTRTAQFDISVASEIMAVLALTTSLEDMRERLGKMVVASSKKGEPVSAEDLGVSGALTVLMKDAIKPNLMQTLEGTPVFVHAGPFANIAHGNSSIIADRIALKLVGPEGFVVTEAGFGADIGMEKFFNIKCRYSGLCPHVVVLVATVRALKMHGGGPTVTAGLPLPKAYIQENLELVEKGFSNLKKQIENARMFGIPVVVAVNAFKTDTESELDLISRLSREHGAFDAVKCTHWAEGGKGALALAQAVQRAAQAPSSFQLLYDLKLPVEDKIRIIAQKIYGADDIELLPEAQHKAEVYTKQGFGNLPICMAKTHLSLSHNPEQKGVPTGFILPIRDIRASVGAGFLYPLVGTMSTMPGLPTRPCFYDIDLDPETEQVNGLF

For `Cc1sc2c(c1C)C(c1ccc(Cl)cc1)=N[C@@H](CC(=O)OC(C)(C)C)c1nnc(C)n1-2` [(S)-JQ1], in assay [1], the “effect on BRD4-MTHFD1 interaction in MTHFD1 pull-down” value was “unaffected”. Also, the “sensitivity of cell lines to single treatment (dose response curves)” value in assay [2] is given as “low sensitivity”. Further, the “diploidization of WT-KBM7 (cell cycle profile)” value in [3] is “induced WT-KBM7 diploidization”. Besides, the “RFP expression detected by live cell imaging” value in assay [4] (REDS1 cells, 1 μM, 24 hours (FIG. 7B)) is reported as “robustly expressed RFP”. Moreover, the “expression of the reporter gene RFP in REDS detected by FACS” value in [4] (REDS clones, 0.5 μM (S)-JQ1 (FIG. 6A)) was “rapid and consistent expression of the reporter gene red fluorescent protein (RFP)”. Also, in [5], the tumor growth result is reported as “not impaired”. In [6], the “sensitivity to (S)-JQ1 after shRNA for MTHFD1” value is listed as “increased sensitivity”.

On to `CN(Cc1cnc2nc(N)nc(N)c2n1)c1ccc(C(=O)N[C@@H](CCC(=O)O)C(=O)O)cc1` [MTX, methotrexate], for which the “effect on BRD4-MTHFD1 interaction in MTHFD1 pull-down” value in [1] is “unaffected”. Besides, the “sensitivity of cell lines to single treatment (dose response curves)” value in assay [2] is on record as “moderate to low sensitivity”. Moreover, the “changes in the nuclear folate pool” value in assay [7] was “highly correlated characteristic changes specifically in the nuclear folate pool”. The “MTHFD1 (or SHMT1) nuclear localization” value in [8] was “not impairing MTHFD1 (or SHMT1) nuclear localization”. In addition, in assay [4] (REDS reporter cells, three days of MTX (FIG. 13C)), the “Redness after MTX treatment” value is listed as “only weakly increased”. Further, the tumor growth entry in assay [5] is on record as “not impaired”. Moreover, in assay [9], the “BRD4 levels on chromatin after MTX” value was “did not affect BRD4 levels”.
